Assay results taken from patent US9120749B2, “Quinoline derivatives and MELK inhibitors containing the same” (ONCOTHERAPY SCIENCE, INC., priority 2010, dated 2015).
Counter-ions that a name gives are not always drawn. Like-named read-outs stand apart in the source and are kept apart here.

How the values were obtained:
[1] = target: MELK (Homo sapiens, UniProt Q14680); assay: Kinase assay: MELK activity, phosphorylation of FITC-labeled histone H3 peptide measured by IMAP fluorescence polarization; assay type: biochemical; conditions: read-out: IC50 (μM) (kinase assay)
Sequence of MELK (Q14680 whole entry, looked up): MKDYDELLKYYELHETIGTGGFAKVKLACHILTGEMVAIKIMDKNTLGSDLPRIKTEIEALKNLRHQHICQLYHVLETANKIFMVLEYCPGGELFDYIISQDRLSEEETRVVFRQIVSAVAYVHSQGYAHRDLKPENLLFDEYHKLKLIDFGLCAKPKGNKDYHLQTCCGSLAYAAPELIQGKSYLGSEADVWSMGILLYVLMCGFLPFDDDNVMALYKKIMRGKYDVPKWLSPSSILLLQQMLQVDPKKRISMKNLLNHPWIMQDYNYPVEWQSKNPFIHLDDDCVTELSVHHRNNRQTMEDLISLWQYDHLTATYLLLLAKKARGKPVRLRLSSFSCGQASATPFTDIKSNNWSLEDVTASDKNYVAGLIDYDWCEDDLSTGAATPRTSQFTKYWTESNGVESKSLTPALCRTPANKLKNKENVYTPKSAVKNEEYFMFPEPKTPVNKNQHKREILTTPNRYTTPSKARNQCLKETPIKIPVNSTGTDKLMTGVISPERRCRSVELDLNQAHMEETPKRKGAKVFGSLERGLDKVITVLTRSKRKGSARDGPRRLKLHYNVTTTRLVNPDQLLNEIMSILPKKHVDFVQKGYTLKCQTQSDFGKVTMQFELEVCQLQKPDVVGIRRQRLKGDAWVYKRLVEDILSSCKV
Summary of the method: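 A FITC-labelled histone H3 peptide served as substrate, with compounds serially diluted to 1% DMSO final. Reactions were stopped with three volumes of IMAP progressive binding solution. After 0.5 h at room temperature, fluorescence polarization was read.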

[2] = tested on: T47D cells; assay: Cell-based assay: anti-proliferative activity, Cell Counting Kit-8, 72 hours (T47D)
Summary of the method: (§1)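 T47D, A549 and BT-549 cells, with MELK-negative HT-1197 as control (MELK status checked by western blot), seeded at 2,000–3,000 cells/well. Growth measured by CCK-8 72 hours after inhibitor exposure; IC50 values calculated.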

[3] = tested on: A549 cells; assay: Cell-based assay: anti-proliferative activity, Cell Counting Kit-8, 72 hours (A549); conditions: 72 hours
Summary of the method: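 Cell Counting Kit-8 read-out of A549 growth after 72 hours of inhibitor exposure, cells plated in 96-well format. Values reported as IC50.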

[4] = tested on: HT-1197 cells; assay: Cell-based assay: anti-proliferative activity, Cell Counting Kit-8, 72 hours (HT-1197, negative control without MELK expression); conditions: HT1197 cells (negative control, no MELK expression), 72 hours
Summary of the method: as §1

[5] = tested on: 22Rv1 cells; assay: Cell-based assay: anti-proliferative activity, Cell Counting Kit-8, 72 hours (22Rv1)
[6] = tested on: DU4475 cells; assay: Cell-based assay: anti-proliferative activity, Cell Counting Kit-8, 72 hours (DU4475)
[7] = MELK kinase assay, IMAP fluorescence polarization, 50 micro-M ATP

## CCC(=O)c1cnc2ccc(-c3cc(F)c(O)c(Cl)c3)cc2c1N[C@H]1CC[C@H](CN2CCCC2)CC1 [Example 846]
[1]; [7]
  IC50: 0.0023 µM
[2]; Homo sapiens, T47D, 72 h
  IC50: 0.096 µM
[3]; Homo sapiens, A549, 72 h
  IC50: 0.13 µM
[4]; Homo sapiens, HT1197, 72 h
  IC50: 0.71 µM
[5]; Homo sapiens, 22Rv1, 72 h
  IC50: 0.16 µM
[6]; Homo sapiens, DU-4475, 72 h
  IC50: 0.071 µM

## CC(=O)c1cnc2ccc(-c3cc(Cl)c(O)c(Cl)c3)cc2c1N[C@H]1CC[C@H](N(C)C)CC1 [Example 765, 1-{6-(3,5-Dichloro-4-hydroxyphenyl)-4-[trans-4-(dimethylamino)cyclohexylamino]quinolin-3-yl}ethanone]
[1]
  IC50: 0.0022 µM
[2]; Homo sapiens, T47D, 72 h
  IC50: 0.081 µM
[3]; Homo sapiens, A549, 72 h
  IC50: 0.17 µM
[4]; Homo sapiens, HT1197, 72 h
  IC50: 1.7 µM
[5]; Homo sapiens, 22Rv1, 72 h
  IC50: 0.14 µM
[6]; Homo sapiens, DU-4475, 72 h
  IC50: 0.047 µM

## CC(=O)c1cnc2ccc(-c3cc(Cl)c(O)c(Cl)c3)cc2c1N[C@H]1CC[C@H](CN2CCCC2)CC1 [Example 767]
[1]
  IC50: 0.0018 µM
[2]; Homo sapiens, T47D, 72 h
  IC50: 0.12 µM
[3]; Homo sapiens, A549, 72 h
  IC50: 0.16 µM
[4]; Homo sapiens, HT1197, 72 h
  IC50: 24 µM
[5]; Homo sapiens, 22Rv1, 72 h
  IC50: 0.15 µM
[6]; Homo sapiens, DU-4475, 72 h
  IC50: 0.083 µM

## CCC(=O)c1cnc2ccc(-c3cc(Cl)c(O)c(OC)c3)cc2c1Nc1ccc(N2CCC(N)C2)nc1 (stereo not drawn) [Example 775, 1-(4-(6-(3-aminopyrrolidin-1-yl)pyridin-3-ylamino)-6-(3-chloro-4-hydroxy-5-methoxyphenyl)quinolin-3-yl)propan-1-one]
[1]
  IC50: 0.0034 µM
[2]; Homo sapiens, T47D, 72 h
  IC50: 0.049 µM
[3]; Homo sapiens, A549, 72 h
  IC50: 0.049 µM
[4]; Homo sapiens, HT1197, 72 h
  IC50: 0.75 µM
[5]; Homo sapiens, 22Rv1, 72 h
  IC50: 0.12 µM
[6]; Homo sapiens, DU-4475, 72 h
  IC50: 0.065 µM

## CC(=O)c1c(C)nc2ccc(-c3cc(Cl)c(O)c(Cl)c3)cc2c1Nc1ccc(N2CCN(C)CC2)nc1 [Example 838, 1-(6-(3,5-dichloro-4-hydroxyphenyl)-2-methyl-4-(6-(4-methylpiperazin-1-yl)pyridin-3-ylamino)quinolin-3-yl)ethanone hydrochloride]
[1]; [7]
  IC50: 0.097 µM
[2]; Homo sapiens, T47D, 72 h
  IC50: 17 µM
[3]; Homo sapiens, A549, 72 h
  IC50: 11 µM
[4]; Homo sapiens, HT1197, 72 h
  IC50: 25 µM
[5]; Homo sapiens, 22Rv1, 72 h
  IC50: 7.2 µM
[6]; Homo sapiens, DU-4475, 72 h
  IC50: 14 µM

## CC(=O)c1cnc2ccc(-c3cc(F)c(O)c(Cl)c3)cc2c1Nc1cccc(CCN2CCN(C)CC2)c1 [Example 830, 1-(6-(3-chloro-5-fluoro-4-hydroxyphenyl)-4-(3-(2-(4-methylpiperazin-1-yl)ethyl)phenylamino)quinolin-3-yl)ethanone]
[1]; [7]
  IC50: 0.019 µM
[2]; Homo sapiens, T47D, 72 h
  IC50: 1.5 µM
[3]; Homo sapiens, A549, 72 h
  IC50: 0.73 µM
[4]; Homo sapiens, HT1197, 72 h
  IC50: 15 µM
[5]; Homo sapiens, 22Rv1, 72 h
  IC50: 1.3 µM
[6]; Homo sapiens, DU-4475, 72 h
  IC50: 0.26 µM

## CN1CCN(CCc2cccc(Nc3c(C(=O)C4CC4)cnc4ccc(-c5cc(Cl)c(O)c(Cl)c5)cc34)c2)CC1 [Example 829, cyclopropyl(6-(3,5-dichloro-4-hydroxyphenyl)-4-(3-(2-(4-methylpiperazin-1-yl)ethyl)phenylamino)quinolin-3-yl)methanone]
[1]; [7]
  IC50: 0.0051 µM
[2]; Homo sapiens, T47D, 72 h
  IC50: 0.7 µM
[3]; Homo sapiens, A549, 72 h
  IC50: 0.087 µM
[4]; Homo sapiens, HT1197, 72 h
  IC50: 5.7 µM
[5]; Homo sapiens, 22Rv1, 72 h
  IC50: 0.23 µM
[6]; Homo sapiens, DU-4475, 72 h
  IC50: 0.057 µM

## CCC(=O)c1cnc2ccc(-c3cc(Cl)c(O)c(Cl)c3)cc2c1Nc1ccc(CN(C)C)cc1 [Example 771, 1-(6-(3,5-dichloro-4-hydroxyphenyl)-4-((4-((dimethylamino)methyl)phenyl)amino)quinolin-3-yl)propan-1-one]
[1]
  IC50: 0.0054 µM
[2]; Homo sapiens, T47D, 72 h
  IC50: 0.072 µM
[3]; Homo sapiens, A549, 72 h
  IC50: 0.095 µM
[4]; Homo sapiens, HT1197, 72 h
  IC50: 0.72 µM
[5]; Homo sapiens, 22Rv1, 72 h
  IC50: 0.16 µM
[6]; Homo sapiens, DU-4475, 72 h
  IC50: 0.045 µM

## COc1cc(-c2ccc3ncc(C(C)=O)c(N[C@H]4CC[C@H](CN5CCC[C@@H]5CO)CC4)c3c2)cc(Cl)c1O [Example 811]
[1]
  IC50: 0.0027 µM
[2]; Homo sapiens, T47D, 72 h
  IC50: 0.49 µM
[3]; Homo sapiens, A549, 72 h
  IC50: 0.28 µM
[4]; Homo sapiens, HT1197, 72 h
  IC50: 5.4 µM
[5]; Homo sapiens, 22Rv1, 72 h
  IC50: 0.45 µM
[6]; Homo sapiens, DU-4475, 72 h
  IC50: 0.38 µM

## CC(=O)c1cnc2ccc(-c3cc(Cl)c(O)c(Cl)c3)cc2c1N[C@H]1CC[C@H](CN2CCCC2)CC1 [Example 768, 1-(6-(3,5-dichloro-4-hydroxyphenyl)-4-(trans-4-(pyrrolidin-1-ylmethyl)cyclohexylamino)quinolin-3-yl)ethanone hydrochloride]
[1]; hydrochloride
  IC50: 0.0015 µM
[2]; 72 hours, hydrochloride
  IC50: 0.11 µM
[3]; hydrochloride
  IC50: 0.13 µM
[4]; hydrochloride
  IC50: 28 µM
[5]; hydrochloride
  IC50: 0.11 µM
[6]; hydrochloride
  IC50: 0.07 µM

## CNC1CCN(c2ccc(Nc3c(C(C)=O)cnc4ccc(-c5cc(F)c(O)c(Cl)c5)cc34)cn2)C1 (stereo not drawn) [Example 785, 1-(6-(3-chloro-5-fluoro-4-hydroxyphenyl)-4-((6-(3-(methylamino)pyrrolidin-1-yl)pyridin-3-yl)amino)quinolin-3-yl)ethanone trihydrochloride]
[1]
  IC50: 0.0056 µM
[2]; Homo sapiens, T47D, 72 h
  IC50: 0.035 µM
[3]; Homo sapiens, A549, 72 h
  IC50: 0.094 µM
[4]; Homo sapiens, HT1197, 72 h
  IC50: 1.3 µM
[5]; Homo sapiens, 22Rv1, 72 h
  IC50: 0.076 µM
[6]; Homo sapiens, DU-4475, 72 h
  IC50: 0.074 µM

## CC(=O)c1cnc2ccc(-c3cc(F)c(O)c(Cl)c3)cc2c1N[C@H]1CC[C@H](CN2CCCC(N)C2)CC1 (stereo partly drawn) [Example 818]
[1]; [7]
  IC50: 0.0043 µM
[2]; Homo sapiens, T47D, 72 h
  IC50: 0.022 µM
[3]; Homo sapiens, A549, 72 h
  IC50: 0.14 µM
[4]; Homo sapiens, HT1197, 72 h
  IC50: 2.7 µM
[5]; Homo sapiens, 22Rv1, 72 h
  IC50: 0.064 µM
[6]; Homo sapiens, DU-4475, 72 h
  IC50: 0.071 µM

## CCC(=O)c1cnc2ccc(-c3cc(F)c(O)c(Cl)c3)cc2c1Nc1ccc(N2CCC(N(C)C)C2)nc1 (stereo not drawn) [Example 860, 1-(6-(3-chloro-5-fluoro-4-hydroxyphenyl)-4-((6-(3-(dimethylamino)pyrrolidin-1-yl)pyridin-3-yl)amino)quinolin-3-yl)propan-1-one]
[1]; [7]
  IC50: 0.0062 µM
[2]; Homo sapiens, T47D, 72 h
  IC50: 0.14 µM
[3]; Homo sapiens, A549, 72 h
  IC50: 0.29 µM
[4]; Homo sapiens, HT1197, 72 h
  IC50: 3.6 µM
[5]; Homo sapiens, 22Rv1, 72 h
  IC50: 0.45 µM
[6]; Homo sapiens, DU-4475, 72 h
  IC50: 0.24 µM

## CNC1CCN(c2ccc(Nc3c(C(=O)C4CC4)cnc4ccc(-c5cc(Cl)c(O)c(Cl)c5)cc34)cn2)C1 (stereo not drawn) [Example 804, cyclopropyl(6-(3,5-dichloro-4-hydroxyphenyl)-4-((6-(3-(methylamino)pyrrolidin-1-yl)pyridin-3-yl)amino)quinolin-3-yl)methanone trihydrochloride]
[1]
  IC50: 0.002 µM
[2]; Homo sapiens, T47D, 72 h
  IC50: 0.088 µM
[3]; Homo sapiens, A549, 72 h
  IC50: 0.17 µM
[4]; Homo sapiens, HT1197, 72 h
  IC50: 1.4 µM
[5]; Homo sapiens, 22Rv1, 72 h
  IC50: 0.1 µM
[6]; Homo sapiens, DU-4475, 72 h
  IC50: 0.042 µM

## CCC(=O)c1cnc2ccc(-c3cc(F)c(O)c(Cl)c3)cc2c1Nc1ccc(N2CCCC(N)C2)nc1 (stereo not drawn) [Example 825, 1-(4-(6-(3-aminopiperidin-1-yl)pyridin-3-ylamino)-6-(3-chloro-5-fluoro-4-hydroxyphenyl)quinolin-3-yl)propan-1-one]
[1]; [7]
  IC50: 0.0018 µM
[2]; Homo sapiens, T47D, 72 h
  IC50: 0.01 µM
[3]; Homo sapiens, A549, 72 h
  IC50: 0.017 µM
[4]; Homo sapiens, HT1197, 72 h
  IC50: 0.069 µM
[5]; Homo sapiens, 22Rv1, 72 h
  IC50: 0.016 µM
[6]; Homo sapiens, DU-4475, 72 h
  IC50: 0.018 µM

## CC(=O)c1cnc2ccc(-c3cc(Cl)c(O)c(Cl)c3)cc2c1Nc1ccc(N2CCC(N(C)C)C2)nc1 (stereo not drawn) [Example 854, 1-(6-(3,5-dichloro-4-hydroxyphenyl)-4-((6-(3-(dimethylamino)pyrrolidin-1-yl)pyridin-3-yl)amino)quinolin-3-yl)ethanone]
[1]; [7]
  IC50: 0.0032 µM
[2]; Homo sapiens, T47D, 72 h
  IC50: 0.25 µM
[3]; Homo sapiens, A549, 72 h
  IC50: 0.39 µM
[4]
  IC50: 10 µM
[5]; Homo sapiens, 22Rv1, 72 h
  IC50: 0.51 µM
[6]; Homo sapiens, DU-4475, 72 h
  IC50: 0.28 µM

## CNC1CCN(c2ccc(Nc3c(C(=O)C4CC4)cnc4ccc(-c5cc(F)c(O)c(Cl)c5)cc34)cn2)C1 (stereo not drawn) [Example 789, (6-(3-chloro-5-fluoro-4-hydroxyphenyl)-4-((6-(3-(methylamino)pyrrolidin-1-yl)pyridin-3-yl)amino)quinolin-3-yl)(cyclopropyl)methanone trihydrochloride]
[1]
  IC50: 0.0028 µM
[2]; Homo sapiens, T47D, 72 h
  IC50: 0.039 µM
[3]; Homo sapiens, A549, 72 h
  IC50: 0.076 µM
[4]; Homo sapiens, HT1197, 72 h
  IC50: 0.8 µM
[5]; Homo sapiens, 22Rv1, 72 h
  IC50: 0.077 µM
[6]; Homo sapiens, DU-4475, 72 h
  IC50: 0.053 µM
